From PMC7707092, “Discovery and characterization of ORM‐11372, a novel inhibitor of the sodium‐calcium exchanger with positive inotropic activity” (British Journal of Pharmacology, 2020)

Key:
[1] = test system: human ventricular trabeculae
[2] = target: T1, h5‐HT2A receptors (Homo sapiens, UniProt P28223); assay: h5‐HT2A agonism and antagonism, intracellular calcium in recombinant HEK 293 cells; assay type: cell-based; details: maximum concentration 10 μM
T1 construct: host or cells: recombinant HEK 293
T1 sequence (P28223 whole entry): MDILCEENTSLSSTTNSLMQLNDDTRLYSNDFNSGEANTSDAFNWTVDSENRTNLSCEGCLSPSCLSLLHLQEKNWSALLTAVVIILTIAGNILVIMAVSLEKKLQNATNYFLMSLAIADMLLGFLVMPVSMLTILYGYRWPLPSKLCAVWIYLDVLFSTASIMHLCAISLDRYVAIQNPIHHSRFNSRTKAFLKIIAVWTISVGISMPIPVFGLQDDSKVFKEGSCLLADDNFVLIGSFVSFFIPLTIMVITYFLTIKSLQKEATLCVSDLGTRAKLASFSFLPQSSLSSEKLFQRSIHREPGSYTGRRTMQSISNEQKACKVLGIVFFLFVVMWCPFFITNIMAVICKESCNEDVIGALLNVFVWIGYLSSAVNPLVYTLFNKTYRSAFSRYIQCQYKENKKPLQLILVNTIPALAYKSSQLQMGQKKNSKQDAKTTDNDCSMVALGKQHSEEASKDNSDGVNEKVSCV
Method: Radioligand binding assays were performed at Eurofins Cerep SA (Celle L'Evescault, France), for testing the inhibition capacity of ORM‐11372 (at 10 μM with two replicates), in over 75 targets. These included receptors (e.g., human A1, A2A, and A3 adenosine receptors; α1 and α2 adrenoceptors; human β1–β3 adrenergic receptors; human D1, D2S, D3, D4.4, and D5 dopamine receptors; EGF and VEGF receptors; human M1–M5 muscarinic ACh receptors; human 5‐HT1A, 5‐HT2A, 5‐HT2B, 5‐HT2C, 5‐HT4e, 5‐HT5A, 5‐HT6, and 5‐HT7 receptors), ion channels (5‐HT3, Ca^2+, ATP‐dependent potassium channel [KATP], voltage‐dependent potassium channel [KV], small‐conductance calcium‐dependent potassium channel [SKCa], Na^+, and Cl^−), and transporters (adenosine, noradrenaline, dopamine, and 5‐HT). Follow‐up functional studies (with five concentrations and two replicates) were performed for 5‐HT2A receptors and noradrenaline transporter. Agonism and antagonism at h5‐HT2A receptors was explored in recombinant HEK 293 cells and intracellular calcium changes were detected using fluorimetry. Noradrenaline uptake was measured by carrying out scintillation counting of [^3H]noradrenaline incorporated into rat hypothalamus synaptosomes.

[3] = test system: healthy rats; assay: In vivo haemodynamics in healthy rats (supplement); parameters: species or system rat
Excerpt: In vivo haemodynamics in healthy rats
Experimental Animals and General Study Protocol
Rat was selected to the study as it is the most widely used rodent species in the toxicology studies performed for the small molecules during the drug development. […]
All animal experiments were made according to European Community Guidelines for the use of experimental animals and approved by Finnish National Animal Experiment Board. All studies complied with the ARRIVE guidelines, (NC3Rs Reporting Guidelines Working Group, 2010).
Specific pathogen free animals were housed in half -barrier rooms where special protecting clothing for personnel was required. Animal rooms were cleaned regularly 3 times per week and cages and bottles were […]
changed regular intervals once a week. Temperature was maintained at 22 ± 2°C and humidity at 55 ± 15%.
Light-dark cycle was lights on from 06.00 to 20.00h.
Male Sprague-Dawley rats (Harlan, Netherlands B.V.) were housed in polycarbonate cages (Makrolon® IV with stainless steel wire mesh lids). Maximally 5 rats were housed per cage with aspen chip bedding (Tapvei Ky, Kaavi, Finland). Rats had free access to water (twice filtered, Espoon Vesi) and rodent diet (SDS RM1
(P) SQC pelleted diet, Special Diet Services Ltd, Witham, England). Acclimation period before experiments was at least 5 days. Healthy 10-12 weeks aged weighing 300-400 g rats were randomized to ORM-11372, dobutamine or vehicle group.
At the end of the haemodynamic experiments, rats were terminated with an overdose of pentobarbital.
Anesthesia and ventilation
Rats were anaesthetised with isoflurane (2.25-2.5 %, Baxter) in carbogen (95 % O2 and 5 % CO2) and nitrous oxide (1:1) using a small rodent ventilator (Ugo Basile 7025, ~10 ml/kg, 60 strokes/min). The rats were infused with 0.9 % NaCl in […] at the stabilization and baseline level. Animals were placed on a heating table (+38°C). Tracheas were cannulated.
Systemic blood (SP) and left ventricular pressures (LVP) were measured with pressure transducers (BP:
Isotec, Hugo Sachs Elektronic, Germany; LVP: Mikro-Tip transducer SPR-249, Millar Instruments, USA). The signal was amplified (DC-bridge amplifier type 660, Hugo Sachs Elektronik, Germany), digitised (I/O connector block type SCB-68, National Instruments, USA), recorded and analysed (IHME 1.0.9, Fision Ltd, Finland). Left ventricular inotropic effect (LV +dP/dtmax) and relaxation (LV -dP/dtmin) and heart rate (HR) were analysed from LVP signal.
Blood sampling for the evaluation of plasma levels of the drug
At the end of each infusion, the blood samples (300-500 µl) were taken into chilled EDTA polypropylene tube (CapiJect®, Terumo) and centrifuged (4000 rpm, 10 min, at 4°C). Plasma was immediately frozen in polypropylene tubes and stored at –20°C. ORM-11372 and dobutamine were extracted from plasma samples using a liquid–liquid extraction and analysed using liquid chromatography–tandem mass spectrometry (Agilent Technologies series 1100 liquid chromatographic system and a Sciex LC-MS/MS API 4000 mass spectrometry). The lower limit of quantification for total plasma concentrations were 32.0 and 5.00 ng/ml from total for ORM-11372 and dobutamine, respectively. […]
The effects of dobutamine on blood pressure varies partially due to the use of racemate as active ingredient in the pharmaceutical formulation. (-)-dobutamine is α1-agonist and therefore causes increases in cardiac output and peripheral resistance. (+)-dobutamine acts via β1- and β2-adrenoceptors which leads to increase in heart rate and reduction in blood pressure 16.
Figure S20 Haemodynamics in healthy rats
Effects of ORM-11372 and dobutamine on haemodynamics in isoflurane anesthetized 10-12 weeks aged male Sprague-Dawley rats (Harlan, Netherlands B.V.) weighing 300-400 g. Shown are mean ± SEM and individual effects on the left ventricular contractility (LV+dP/dtmax, panel A), relaxation (LV-dP/dtmax, panel B), heart rate (panel C), and systolic arterial blood pressure (SAP, paned D). […]

[4] = 4 nM up to 92 nM free plasma concentration

With Nc1cccc(-c2ccc(CNc3ccc(F)cc3)o2)c1 [ORM‐11372] the “STV and triangulation (pro‐arrhythmia markers)” value ([1]; 1 or 2 Hz, ORM‐11372 any tested concentration, dofetilide 0.1 μM (positive control)) was “no effects”, the “APD30, APD50 and APD90” value ([1]; up to 10 μM, 1‐ and 2‐Hz pacing) was “no significant changes” and the “agonism / antagonism at 5‐HT2A receptors” value [2] was “Neither agonism nor antagonism”. The “absolute maximum positive inotropic effect” value [3] was 44%, the “free plasma concentration achieving 25% positive inotropic effect” value [3] was 36 ± 1.4 nM and the “free plasma concentration at absolute maximum positive inotropic effect” value [3] was 351 ± 92 nM. The “free plasma concentration at maximum inotropic effect without any other effects” value [3] was 92 ± 8 nM, the “free plasma concentration at the 10±2% (ORM-11372) / 16±3% (dobutamine) inotropic effect” value [3] was 4 ± 0.3 nM and the left ventricular relaxation [3, 4] was “did not affect”. For the same compound, the systolic blood pressure [3, 4] was “did not affect”, the “improvement of relaxation (tendency)” value ([3]; 36 nM free plasma) was 7.5±4.5% and the “effective free concentration range in rat plasma” value ([3]; Figure S20) was 4 to 300 nM. The “maximum inotropic effect without any other effects” value ([3]; at 92±8 nM free plasma) was 34±5%, the positive inotropic effect ([3]; at free plasma concentration 4±0.3 nM (ORM-11372), 16±0.8 nM (dobutamine)) was 10±2% and the “decrease in heart rate” value ([3]; free plasma concentrations higher than 240 nM) was -7 to -12%. For the same compound, the relaxation ([3]; high concentration (≥240 nM)) was “impaired relaxation” and the heart rate ([3]; up to 240 nM free plasma concentration) was “no effect”.
